Like-named read-outs stand apart in the source and are kept apart here.
System: HIV-IIIb
Assay: Antiviral assay in MT4 cells
Format: cell-based
Conditions: Human immunodeficiency virus 1, IIIB, MT4, 120 h
Description: For the antiviral assay utilizing MT4 cells, 0.4 μL of 189X test concentration of 3-fold serially diluted compound in DMSO was added to 40 μL of cell growth medium (RPMI 1640, 10% FBS, 1% penicilline/Streptomycine, 1% L-Glutamine, 1% HEPES) in each well of 384-well assay plates (10 concentrations) in quidruplicate.
1 mL aliquots of 2×10^6 MT4 cells are pre-infected for 1 and 3 hours respectively at 37° C. with 25 μL (MT4) or of either cell growth medium (mock-infected) or a fresh 1:250 dilution of an HIV-IIIb concentrated ABI stock (0.004 m.o.i. for MT4 cells). Infected and uninfected cells are diluted in cell growth medium and 35 μL of 2000 (for MT4) cells is added to each well of the assay plates.
Assay plates were then incubated in a 37° C. incubator. After 5 days of incubation, 25 μL of 2× concentrated CellTiter-Glo™ Reagent (catalog # G7573, Promega Biosciences, Inc., Madison, Wis.) was added to each well of the assay plate. Cell lysis was carried out by incubating at room temperature for 2-3 minutes, and then chemiluminescence was read using the Envision reader (PerkinElmer).

[1] = MT4 cells infected with HIV-IIIb, 5 days, CellTiter-Glo, read-out: EC50 nM in MT-4
[2] = read-out: EC50 nM in MT-4, MT4 cells infected with HIV-IIIb, 5 days, CellTiter-Glo

SMILES | EC50 [1] | EC50 [2]
O=C(NCc1ccc(F)cc1F)c1cn2c(c(O)c1=O)C(=O)N1[C@@H]3COC[C@@H](C3)O[C@H]1C2 (racemic) [50/51, N-(2,4-difluorobenzyl)-9-hydroxy-8,10-dioxo-2,3,5,6,8,10,14,14a-octahydro-2,6-methanopyrido[1′,2′:4,5]pyrazino[2,1-b][1,6,3]dioxazocine-11-carboxamide] | 1.9 nM | 
O=C(NCc1ccc(F)cc1F)c1cn2c(c(O)c1=O)C(=O)N1[C@@H]3CC[C@@H](C3)O[C@H]1C2 (racemic) [Compound 1, N-(2,4-difluorobenzyl)-8-hydroxy-7,9-dioxo-2,3,4,5,7,9,13,13a-octahydro-2,5-methanopyrido[1′,2′:4,5]pyrazino[2,1-b][1,3]oxazepine-10-carboxamide] | 2.6 nM | 
O=C(NCc1c(F)cc(F)cc1F)c1cn2c(c(O)c1=O)C(=O)N1[C@H]3C[C@H](C3)[C@H]1C2 (single isomer, unassigned) [Compound 96] | 2.6 nM | 
O=C(NCc1c(F)cc(F)cc1F)c1cn2c(c(O)c1=O)C(=O)N1[C@H]3C[C@H](C3)[C@@H]1C2 (single isomer, unassigned) [Compound 97] | 2.1 nM | 
O=C(NCc1ccc(F)cc1F)c1cn2c(c(O)c1=O)C(=O)N1C(C2)[C@H]2CC[C@@H]1C2 (stereo in doubt) [Compound 38, (1S,4R,12aR)—N-(2,4-difluorobenzyl)-7-hydroxy-6,8-dioxo-1,2,3,4,6,8,12,12a-octahydro-1,4-methanodipyrido[1,2-a:1′,2′-d]pyrazine-9-carboxamide] |  | 1.7 nM
O=C(NCc1ccc(F)cc1F)c1cn2c(c(O)c1=O)C(=O)N1C(C2)[C@H]2CC[C@@H]1C2 (stereo in doubt) [Compound 48, (1S,4R,12aS)—N-(2,4-difluorobenzyl)-7-hydroxy-6,8-dioxo-1,2,3,4,6,8,12,12a-octahydro-1,4-methanodipyrido[1,2-a:1′,2′-d]pyrazine-9-carboxamide] |  | 2.7 nM
O=C(NCc1c(F)cc(F)cc1F)c1cn2c(c(O)c1=O)C(=O)N1[C@H]3CC(F)C(C3)[C@@H]1C2 (stereo in doubt) [Compound 56, (1R,2S,4R,12aR)-2-fluoro-7-hydroxy-6,8-dioxo-N-(2,4,6-trifluorobenzyl)-1,2,3,4,6,8,12,12a-octahydro-1,4-methanodipyrido[1,2-a:1′,2′-d]pyrazine-9-carboxamide] | 3.1 nM | 
O=C(NCc1ccc(F)cc1F)c1cn2c(c(O)c1=O)C(=O)N1[C@H]3CC[C@H](C3)O[C@@H]1C2 [Compound 2, (2R,5S,13aR)—N-(2,4-difluorobenzyl)-8-hydroxy-7,9-dioxo-2,3,4,5,7,9,13,13a-octahydro-2,5-methanopyrido[1′,2′:4,5]pyrazino[2,1-b][1,3]oxazepine-10-carboxamide] | 2.2 nM | 
O=C(NCc1ccc(F)cc1F)c1cn2c(c(O)c1=O)C(=O)N1[C@@H]3CC[C@@H](C3)O[C@H]1C2 [Compound 3, (2S,5R,13aS)—N-(2,4-difluorobenzyl)-8-hydroxy-7,9-dioxo-2,3,4,5,7,9,13,13a-octahydro-2,5-methanopyrido[1′,2′:4,5]pyrazino[2,1-b][1,3]oxazepine-10-carboxamide] | 2 nM | 
O=C(NCc1ccc(F)cc1F)c1cn2c(c(O)c1=O)C(=O)N1C(C2)[N@@]2CC[C@@H]1C2 (stereo partly drawn) [Compound 4, (1S,4R)—N-(2,4-difluorobenzyl)-7-hydroxy-6,8-dioxo-3,4,6,8,12,12a-hexahydro-2H-1,4-methanopyrido[1′,2′:4,5]pyrazino[1,2-a]pyrimidine-9-carboxamide] | 14.8 nM | 
C[C@@H]1CCO[C@H]2Cn3cc(C(=O)NC4(c5ccc(F)cc5F)CC4)c(=O)c(O)c3C(=O)N12 [Compound 5, (4R,12aS)—N-(1-(2,4-difluorophenyl)cyclopropyl)-7-hydroxy-4-methyl-6,8-dioxo-3,4,6,8,12,12a-hexahydro-2H-[1,3]oxazino[3,2-d]pyrido[1,2-a]pyrazine-9-carboxamide] | 8.1 nM | 
O=C(NCc1ccc(F)cc1F)c1cn2c(c(O)c1=O)C(=O)N1C(C2)[N@]2CC[C@H]1C2 (stereo partly drawn) [Compound 6, (1R,4S)—N-(2,4-difluorobenzyl)-7-hydroxy-6,8-dioxo-3,4,6,8,12,12a-hexahydro-2H-1,4-methanopyrido[1′,2′:4,5]pyrazino[1,2-a]pyrimidine-9-carboxamide] | 5.3 nM | 
O=C(NCc1ccc(F)cc1F)c1cn2c(c(O)c1=O)C(=O)N1C(C2)O[C@H]2CCC[C@@H]1C2 (stereo partly drawn) [Compound 7, (2S,6R)—N-(2,4-difluorobenzyl)-9-hydroxy-8,10-dioxo-3,4,5,6,8,10,14,14a-octahydro-2H-2,6-methanopyrido[1′,2′:4,5]pyrazino[2,1-b][1,3]oxazocine-11-carboxamide] | 3.5 nM | 
O=C(NCc1ccc(F)cc1F)c1cn2c(c(O)c1=O)C(=O)N1C(C2)O[C@@H]2CCC[C@H]1C2 (stereo partly drawn) [Compound 8, (2R,6S)—N-(2,4-difluorobenzyl)-9-hydroxy-8,10-dioxo-3,4,5,6,8,10,14,14a-octahydro-2H-2,6-methanopyrido[1′,2′:4,5]pyrazino[2,1-b][1,3]oxazocine-11-carboxamide] | 2.5 nM | 
C[C@@H](NC(=O)c1cn2c(c(O)c1=O)C(=O)N1[C@@H]3CC[C@@H](C3)O[C@H]1C2)c1ccc(F)cc1 [Compound 9, (2S,5R,13aS)—N—((R)-1-(4-fluorophenyl)ethyl)-8-hydroxy-7,9-dioxo-2,3,4,5,7,9,13,13a-octahydro-2,5-methanopyrido[1′,2′:4,5]pyrazino[2,1-b][1,3]oxazepine-10-carboxamide] | 5.1 nM | 
C[C@@H](NC(=O)c1cn2c(c(O)c1=O)C(=O)N1[C@H]3CC[C@H](C3)O[C@@H]1C2)c1ccc(F)cc1 [Compound 10, (2R,5S,13aR)—N—((R)-1-(4-fluorophenyl)ethyl)-8-hydroxy-7,9-dioxo-2,3,4,5,7,9,13,13a-octahydro-2,5-methanopyrido[1%2′: 4,5]pyrazino[2,1-b][1,3]oxazepine-10-carboxamide] | 6.1 nM | 
C[C@@H](NC(=O)c1cn2c(c(O)c1=O)C(=O)N1[C@@H]3CC[C@@H](C3)O[C@H]1C2)c1ccc(F)cc1F [Compound 11, (2S,5R,13aS)—N—((R)-1-(2,4-difluorophenyl)ethyl)-8-hydroxy-7,9-dioxo-2,3,4,5,7,9,13,13a-octahydro-2,5-methanopyrido[1′,2′: 4,5]pyrazino[2,1-b][1,3]oxazepine-10-carboxamide] | 4.9 nM | 
C[C@@H](NC(=O)c1cn2c(c(O)c1=O)C(=O)N1[C@H]3CC[C@H](C3)O[C@@H]1C2)c1ccc(F)cc1F [Compound 12, (2R,5S,13aR)—N—((R)-1-(2,4-difluorophenyl)ethyl)-8-hydroxy-7,9-dioxo-2,3,4,5,7,9,13,13a-octahydro-2,5-methanopyrido[1′,2′:4,5]pyrazino[2,1-b][1,3]oxazepine-10-carboxamide] | 5.9 nM | 
C[C@H](NC(=O)c1cn2c(c(O)c1=O)C(=O)N1[C@@H]3CC[C@@H](C3)O[C@H]1C2)c1ccc(F)cc1F [Compound 13, (2S,5R,13aS)—N—((S)-1-(2,4-difluorophenyl)ethyl)-8-hydroxy-7,9-dioxo-2,3,4,5,7,9,13,13a-octahydro-2,5-methanopyrido[1%2′: 4,5]pyrazino[2,1-b][1,3]oxazepine-10-carboxamide] | 46 nM | 
C[C@H](NC(=O)c1cn2c(c(O)c1=O)C(=O)N1[C@H]3CC[C@H](C3)O[C@@H]1C2)c1ccc(F)cc1F [Compound 14, (2R,5S,13aR)—N—((S)-1-(2,4-difluorophenyl)ethyl)-8-hydroxy-7,9-dioxo-2,3,4,5,7,9,13,13a-octahydro-2,5-methanopyrido[1′,2′:4,5]pyrazino[2,1-b][1,3]oxazepine-10-carboxamide] | 65.5 nM | 
O=C(NCc1ccc(F)cc1)c1cn2c(c(O)c1=O)C(=O)N1[C@@H]3CC[C@@H](C3)O[C@H]1C2 [Compound 15, (2 S,5R,13aS)—N-(4-fluorobenzyl)-8-hydroxy-7,9-dioxo-2,3,4,5,7,9,13,13a-octahydro-2,5-methanopyrido[1′,2′:4,5]pyrazino[2,1-b][1,3]oxazepine-10-carboxamide] | 2.2 nM | 
O=C(NCc1cccc(F)c1F)c1cn2c(c(O)c1=O)C(=O)N1[C@@H]3CC[C@@H](C3)O[C@H]1C2 [Compound 16, (2S,5R,13aS)—N-(2,3-difluorobenzyl)-8-hydroxy-7,9-dioxo-2,3,4,5,7,9,13,13a-octahydro-2,5-methanopyrido[1′,2′:4,5]pyrazino[2,1-b][1,3]oxazepine-10-carboxamide] | 1.5 nM | 
O=C(NCc1ccc(Cl)cc1F)c1cn2c(c(O)c1=O)C(=O)N1[C@@H]3CC[C@@H](C3)O[C@H]1C2 [Compound 17, (2 S,5R,13aS)—N-(4-chloro-2-fluorobenzyl)-8-hydroxy-7,9-dioxo-2,3,4,5,7,9,13,13a-octahydro-2,5-methanopyrido[1′,2′:4,5]pyrazino[2,1-b][1,3]oxazepine-10-carboxamide] | 5.9 nM | 
O=C(NCc1ccc(F)c(F)c1)c1cn2c(c(O)c1=O)C(=O)N1[C@@H]3CC[C@@H](C3)O[C@H]1C2 [Compound 18, (2S,5R,13aS)—N-(3,4-difluorobenzyl)-8-hydroxy-7,9-dioxo-2,3,4,5,7,9,13,13a-octahydro-2,5-methanopyrido[1′,2′:4,5]pyrazino[2,1-b][1,3]oxazepine-10-carboxamide] | 4.1 nM | 

From US10689399B2, “Substituted 3,4,5,6,8,10,14,14a-octahydro-2h-2,6-methanopyrido[1′,2′:4,5]pyrazino[2,1-b][1,3]oxazocines and methods for treating viral infections” (Gilead Sciences, Inc., priority 2012, dated 2020)
